Activity calls are given as the source filed them. No cut-off for these calls is given here.
Columns and labels:
[1] = tested on: HepG2; assay: Cytotoxicity against human HepG2 cells at 10 to 100 uM after 24 hrs by MTT assay; assay type: functional, cell-based
[2] = tested on: HepG2; assay: Cytotoxicity against human HepG2 cells assessed as cell viability at 3 uM after 24 hrs by MTT assay; assay type: functional
[3] = tested on: HepG2; assay: Cytotoxicity against human HepG2 cells assessed as cell viability at 3 uM after 24 hrs by MTT assay in presence of hemoglobin; assay type: functional, cell-based
[4] = tested on: HepG2; assay: Cytotoxicity against human HepG2 cells assessed as cell viability at 3 uM after 24 hrs by MTT assay in presence of EA; assay type: functional
[5] = tested on: Bel-7402; assay: Cytotoxicity against human Bel7402 cells at 30 uM after 24 hrs by MTT assay; assay type: functional
[6] = tested on: HepG2; assay: Induction of intracellular NO release in human HepG2 cells at 30 uM after 6 hrs by Griess assay; assay type: functional, cell-based
[7] = tested on: HepG2; assay: Cytotoxicity against human HepG2 cells at 30 uM after 24 hrs by MTT assay; assay type: functional
[8] = tested on: SMMC-7721; assay: Cytotoxicity against human SMMC7721 cells at 30 uM after 24 hrs by MTT assay; assay type: functional
[9] = tested on: HepG2; assay: Induction of intracellular NO release in human HepG2 cells at 10 uM after 24 hrs by DAF-FM DA staining-based flow cytometry; assay type: functional, cell-based

Structure (SMILES): CN(CCO)/[N+]([O-])=N\Oc1cc(N2CCN(CC(=O)O)CC2)c([N+](=O)[O-])cc1[N+](=O)[O-]
- Activity [1]: Active

Structure (SMILES): CN(CCO)c1cc(N2CCN(CC(=O)O[C@H]3CC[C@]4(C)[C@H]5CC=C6[C@@H]7CC(C)(C)CC[C@]7(C(=O)O[C@@H]7O[C@H](CO)[C@H](O)[C@H](O)[C@H]7O)CC[C@@]6(C)[C@]5(C)CC[C@H]4C3(C)C)CC2)c([N+](=O)[O-])cc1[N+](=O)[O-]
- Activity [2]: Active
- Activity [1]: Active
- Activity [3]: inactive
- Activity [4]: Active

Structure (SMILES): CN(CCO)/[N+]([O-])=N/Oc1cc(NCC(=O)O[C@H]2CC[C@]3(C)[C@H]4CC=C5[C@@H]6CC(C)(C)CC[C@]6(C(=O)O[C@@H]6O[C@H](CO)[C@H](O)[C@H](O)[C@H]6O)CC[C@@]5(C)[C@]4(C)CC[C@H]3C2(C)C)c([N+](=O)[O-])cc1[N+](=O)[O-]
- Activity [5]: Active
- Activity [6]: Active
- Activity [7]: Active
- Activity [8]: Active

Structure (SMILES): CCOC(=O)N1CCN(/[N+]([O-])=N/Oc2ccc([N+](=O)[O-])cc2[N+](=O)[O-])CC1
- Activity [9]: Active

Structure (SMILES): CN1CCN(/[N+]([O-])=N\Oc2cc(NCCC(=O)O[C@H]3CC[C@]4(C)[C@H]5CC=C6[C@@H]7CC(C)(C)CC[C@]7(C(=O)O[C@@H]7O[C@H](CO)[C@H](O)[C@H](O)[C@H]7O)CC[C@@]6(C)[C@]5(C)CC[C@H]4C3(C)C)c([N+](=O)[O-])cc2[N+](=O)[O-])CC1
- Activity [5]: Active
- Activity [7]: Active
- Activity [8]: Active

Structure (SMILES): CN(C)/[N+]([O-])=N\Oc1cc(NCCC(=O)O[C@H]2CC[C@]3(C)[C@H]4CC=C5[C@@H]6CC(C)(C)CC[C@]6(C(=O)O[C@@H]6O[C@H](CO)[C@H](O)[C@H](O)[C@H]6O)CC[C@@]5(C)[C@]4(C)CC[C@H]3C2(C)C)c([N+](=O)[O-])cc1[N+](=O)[O-]
- Activity [5]: Active
- Activity [7]: Active
- Activity [8]: Active

Structure (SMILES): CN(CCO)/[N+]([O-])=N/Oc1cc(NCCCC(=O)O[C@H]2CC[C@]3(C)[C@H]4CC=C5[C@@H]6CC(C)(C)CC[C@]6(C(=O)O[C@@H]6O[C@H](CO)[C@H](O)[C@H](O)[C@H]6O)CC[C@@]5(C)[C@]4(C)CC[C@H]3C2(C)C)c([N+](=O)[O-])cc1[N+](=O)[O-]
- Activity [5]: Active
- Activity [7]: Active
- Activity [8]: Active

Structure (SMILES): C[C@H](Nc1cc(O/N=[N+](\[O-])N(C)CCO)c([N+](=O)[O-])cc1[N+](=O)[O-])C(=O)O[C@H]1CC[C@]2(C)[C@H]3CC=C4[C@@H]5CC(C)(C)CC[C@]5(C(=O)O[C@@H]5O[C@H](CO)[C@H](O)[C@H](O)[C@H]5O)CC[C@@]4(C)[C@]3(C)CC[C@H]2C1(C)C
- Activity [5]: Active
- Activity [7]: Active
- Activity [8]: Active

Structure (SMILES): CC1(C)CC[C@]2(C(=O)O[C@@H]3O[C@H](CO)[C@H](O)[C@H](O)[C@H]3O)CC[C@]3(C)C(=CC[C@@H]4[C@@]5(C)CC[C@H](O)C(C)(C)[C@@H]5CC[C@]43C)[C@@H]2C1
- Activity [1]: Active

Structure (SMILES): CCN(CC)/[N+]([O-])=N\Oc1cc(NCCC(=O)O[C@H]2CC[C@]3(C)[C@H]4CC=C5[C@@H]6CC(C)(C)CC[C@]6(C(=O)O[C@@H]6O[C@H](CO)[C@H](O)[C@H](O)[C@H]6O)CC[C@@]5(C)[C@]4(C)CC[C@H]3C2(C)C)c([N+](=O)[O-])cc1[N+](=O)[O-]
- Activity [5]: Active
- Activity [7]: Active
- Activity [8]: Active

Structure (SMILES): CC1(C)CC[C@]2(C(=O)O[C@@H]3O[C@H](CO)[C@H](O)[C@H](O)[C@H]3O)CC[C@]3(C)C(=CC[C@@H]4[C@@]5(C)CC[C@H](OC(=O)CCNc6cc(O/N=[N+](/[O-])N7CCN(Cc8ccccc8)CC7)c([N+](=O)[O-])cc6[N+](=O)[O-])C(C)(C)[C@@H]5CC[C@]43C)[C@@H]2C1
- Activity [5]: Active
- Activity [7]: Active
- Activity [8]: Active

Structure (SMILES): CN(CCO)/[N+]([O-])=N\Oc1cc(NCCC(=O)O[C@H]2CC[C@]3(C)[C@H]4CC=C5[C@@H]6CC(C)(C)CC[C@]6(C(=O)O[C@@H]6O[C@H](CO)[C@H](O)[C@H](O)[C@H]6O)CC[C@@]5(C)[C@]4(C)CC[C@H]3C2(C)C)c([N+](=O)[O-])cc1[N+](=O)[O-]
- Activity [6]: Active

Structure (SMILES): CN(CCO)/[N+]([O-])=N/Oc1cc(N[C@@H](Cc2ccccc2)C(=O)O[C@H]2CC[C@]3(C)[C@H]4CC=C5[C@@H]6CC(C)(C)CC[C@]6(C(=O)O[C@@H]6O[C@H](CO)[C@H](O)[C@H](O)[C@H]6O)CC[C@@]5(C)[C@]4(C)CC[C@H]3C2(C)C)c([N+](=O)[O-])cc1[N+](=O)[O-]
- Activity [5]: Active
- Activity [7]: Active
- Activity [8]: Active

Structure (SMILES): CC(C)C[C@H](Nc1cc(O/N=[N+](\[O-])N(C)CCO)c([N+](=O)[O-])cc1[N+](=O)[O-])C(=O)O[C@H]1CC[C@]2(C)[C@H]3CC=C4[C@@H]5CC(C)(C)CC[C@]5(C(=O)O[C@@H]5O[C@H](CO)[C@H](O)[C@H](O)[C@H]5O)CC[C@@]4(C)[C@]3(C)CC[C@H]2C1(C)C
- Activity [5]: Active
- Activity [7]: Active
- Activity [8]: Active
